Assay results from publication PMC5908295 (Oncotarget, 2018).

Columns and labels:
KASUMI-3 = test: MTS viability assay, 72 h; details: Kasumi-3, 72 h
Protocol: (§3) 15-25 ×10^3 of MV-4-11, MOLM-13, MOLM-14, MOLM-16, KG-1, Eol-1, SKM-1, PL-21, GDM-1, SKNO-1, RS4;11, Kasumi-3 and Kasumi-6 cells were seeded in 150 μL of culture medium onto individual wells in a 96 well plates, in triplicates. On the same day, 50 μL of medium containing tested inhibitor was added to the wells. Each compound was tested at 8 concentrations, in triplicates. As a negative control, the medium containing 0.1% DMSO was used. […] Staurosporine was used at 10 μM as a positive control. One the day of drug addition, basal signal from untreated cells was measured from in triplicate to determine time zero (T0). […] GI50 and LC50 values were extrapolated from a variable (four-parameter) dose-response curve fitted in GraphPad Prism.

FLT3wt = FLT3wt (Homo sapiens, UniProt P36888); test: KINOMEscan Kd (DiscoverX); type: binding
MOLM-13 xenografts = test: MOLM-13 subcutaneous xenograft; type: in vivo; details: MOLM-13, SCID mice; AC220 10 mg/kg QD, other doses not given
Source text: All animals were handled in strict accordance with good animal practice as defined by the relevant national and local animal welfare bodies. SCID and SCID/beige C.B-17 mice were provided by Harlan Laboratories or Charles River Laboratories, and were maintained in pathogen free conditions. For the xenograft experiments, age-matched (9-11 weeks old) females were used. 5×10^6 of MV-4-11 or MOLM-16 cells were suspended in a mixture (1:1, v:v) of PBS with Matrigel (BD Biosciences,) and injected subcutaneously (sc), in a total volume of 100 μL, above the groin on the right hind limb. For MOLM-13 and KG-1 cells, a mixture (3:1, v:v) of PBS and Matrigel HC (BD Bioscience,) was used to inject 5 × 10^6 of cell per mouse subcutaneously (sc), in a total volume of 100 μL. When tumors reached 100-130 mm^3, mice were randomized into uniform groups (6-9 mice per group) and subsequently administered the compound. […] At the end of the experiment, mice were anesthetized with isofluran and blood samples for total cell counts and biochemistry were obtained by retro-orbital bleeding. […] 5×10^6 cells suspended in a mixture (3:1, v:v) of PBS and Matrigel were injected as described above. […] Tumor volume was monitored every second day and calculated using the formula: TV = (a^2×b)/2, where “a” is the short axis in millimeters, and “b” is the long axis in millimeters. Body weight was assessed every day.

[1] = Metabolic stability, liver microsomes; type: in vitro ADME; details: Human, 37 °C, read-out: Liver microsomes t1/2 (converted)
[2] = Metabolic stability, liver microsomes; type: in vitro ADME; details: Rat, 37 °C, read-out: Liver microsomes t1/2 (converted)
OCI-AML-3 = test: MTS viability assay, 72 h; details: Homo sapiens, OCI-AML-3, 72 h
Protocol: as §3

MOLM-16 (FLT3-WT) cells = test: Western blot of FLT3/PIM downstream signaling; type: cell-based; details: MOLM-16, 4 hours
Protocol: (§1) Thereafter, we assessed the activities of FLT3-ITD – induced key pro-survival signaling pathways; STAT5, RAF/MEK/ERK and PI3K/AKT (Figure 3). […] Since the expression of a major anti-apoptotic BCL2 family member, MCL1, is regulated by translation, and PIM kinases regulate protein synthesis through 4EBP1, we also assessed the abundance of MCL1.
(§2) Cells were collected, washed twice with cold PBS, and lysed in RIPA buffer and kept on ice for 10 min. Tumor specimens from xenograft studies were homogenized in RIPA buffer using OMNI TH Tissue Homogenizer and kept on ice for 30 min. After incubation, cell and tumor lysates were centrifuged at 13,000×g at 4°C for 10 min and the supernatants were stored at −80°C until use. Protein concentration was measured using the Bradford method. For SDS-PAGE, 50 μg of protein in the Laemmli sample buffer was loaded onto 10% polyacrylamide gels and electrophoresed. Thereafter, proteins were transferred onto polyvinylidene fluoride (PVDF) membranes (Millipore). After blocking with 5% non-fat dry milk/TBS-T or 2% BSA/TBS-T, membranes were incubated with specific primary antibodies (listed in Supplementary Table 2) at 4 °C overnight. After extensive washing in PBS-T, membranes were incubated for 60 min with appropriate secondary peroxidase-conjugated IgG. The immunoreactive proteins were detected using an enhanced chemiluminescence (ECL) substrate (GE Healthcare) and visualized with Hyperfilm-ECL (GE Healthcare Biosciences).

[3] = system: MV-4-11 (FLT3-ITD+) cells; test: Western blot of FLT3/PIM downstream signaling; type: cell-based; details: MV-4-11, 4 hours
Protocol: as §1, §2

RS4;11 = test: MTS viability assay, 72 h; details: Homo sapiens, RS4-11, 72 h
Protocol: as §3

EOL-1 = test: MTS viability assay, 72 h; details: Homo sapiens, EOL1, 72 h
Protocol: as §3

MOLM-6 = test: MTS viability assay, 72 h; details: 72 h
Protocol: as §3

[4] = system: Phospho-S6 in MOLM-16 tumors; test: PK/PD: phospho-S6 in MOLM-16 tumors after dosing; type: in vivo, SCID/beige mice; details: 25 mg/kg BID for 3 days
Protocol: At the end of the experiment, mice were sacrificed 4, 8 and 24h after the last dose (three mice per time point). Plasma and tumor samples were collected and stored at −80°C for further analysis.

[5] = Pharmacokinetics after oral and intravenous administration; type: in vivo, mice (CD-1); details: female, CD-1, plasma, Mouse, Dose PO/IV 50/15 mg/kg
Protocol: therapeutic potential in acute myeloid leukemia
sheet for further calculations.
Three male Beagle dogs were administered

[6] = system: MOLM-14 cells transduced with FLT3 TKD point mutations (D835Y, D835V and F691L); test: MTS viability of MOLM-14 cells with FLT3 alleles; type: cell-based; details: 72 h
[7] = Metabolic stability, liver S9 fraction; type: in vitro ADME; details: Rat, 37 °C, read-out: Liver S9 fraction t1/2 (converted)
OCI-AML-2 = test: MTS viability assay, 72 h; details: Homo sapiens, OCI-AML2, 72 h
Protocol: (§4) On the same day, 50 μL of medium containing tested inhibitor was added to the wells. Each compound was tested at 8 concentrations, in triplicates. As a negative control, the medium containing 0.1% DMSO was used. […] Staurosporine was used at 10 μM as a positive control. One the day of drug addition, basal signal from untreated cells was measured from in triplicate to determine time zero (T0). […] GI50 and LC50 values were extrapolated from a variable (four-parameter) dose-response curve fitted in GraphPad Prism.

GDM-1 = test: MTS viability assay, 72 h; details: Homo sapiens, GDM-1, 72 h
Protocol: as §3

SKNO-1 = test: MTS viability assay, 72 h; details: SKNO-1, 72 h
Protocol: as §3

PIM2 = PIM2 (Homo sapiens, UniProt Q9P1W9); test: KINOMEscan Kd (DiscoverX); type: binding
MV-4-11 = test: MTS viability assay, 72 h; details: Homo sapiens, MV4-11, 72 h
Protocol: as §4

Chain of PIM2 (Q9P1W9 whole entry): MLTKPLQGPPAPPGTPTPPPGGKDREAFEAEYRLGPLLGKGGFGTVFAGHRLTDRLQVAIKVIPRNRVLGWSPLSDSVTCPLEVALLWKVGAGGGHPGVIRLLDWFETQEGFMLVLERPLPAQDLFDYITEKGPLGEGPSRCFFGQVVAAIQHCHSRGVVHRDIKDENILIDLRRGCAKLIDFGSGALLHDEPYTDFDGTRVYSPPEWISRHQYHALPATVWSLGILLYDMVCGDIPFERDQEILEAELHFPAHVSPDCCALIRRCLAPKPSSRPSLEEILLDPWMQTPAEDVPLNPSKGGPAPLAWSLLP
Chain of FLT3wt (P36888 27-993): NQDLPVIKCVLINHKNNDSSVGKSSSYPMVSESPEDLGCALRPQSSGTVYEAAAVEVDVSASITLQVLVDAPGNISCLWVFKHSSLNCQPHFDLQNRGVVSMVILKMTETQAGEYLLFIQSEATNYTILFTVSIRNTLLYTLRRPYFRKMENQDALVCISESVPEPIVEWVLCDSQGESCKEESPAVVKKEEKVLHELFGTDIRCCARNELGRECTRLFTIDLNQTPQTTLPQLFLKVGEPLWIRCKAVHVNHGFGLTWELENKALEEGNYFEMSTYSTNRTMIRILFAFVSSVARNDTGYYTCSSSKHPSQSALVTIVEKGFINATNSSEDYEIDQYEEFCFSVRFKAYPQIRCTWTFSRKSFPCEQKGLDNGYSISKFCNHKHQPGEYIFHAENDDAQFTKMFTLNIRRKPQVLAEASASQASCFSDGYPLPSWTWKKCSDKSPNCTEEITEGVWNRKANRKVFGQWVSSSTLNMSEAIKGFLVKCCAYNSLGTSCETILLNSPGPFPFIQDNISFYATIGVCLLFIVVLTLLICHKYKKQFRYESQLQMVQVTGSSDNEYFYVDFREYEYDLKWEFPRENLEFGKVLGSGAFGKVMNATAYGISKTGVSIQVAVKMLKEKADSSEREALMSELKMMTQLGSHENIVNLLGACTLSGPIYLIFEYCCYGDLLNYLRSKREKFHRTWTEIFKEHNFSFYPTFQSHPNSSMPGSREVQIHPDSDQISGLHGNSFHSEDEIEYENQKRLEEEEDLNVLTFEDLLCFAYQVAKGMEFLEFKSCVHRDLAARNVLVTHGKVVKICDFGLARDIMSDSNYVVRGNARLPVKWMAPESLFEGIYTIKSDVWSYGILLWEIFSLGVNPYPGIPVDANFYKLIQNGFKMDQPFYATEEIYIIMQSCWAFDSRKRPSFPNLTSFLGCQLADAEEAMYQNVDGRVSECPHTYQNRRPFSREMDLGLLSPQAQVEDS

`CC(C)n1c(C2CCNCC2)nc2c([N+](=O)[O-])c(Br)c(Br)cc21` [SEL24-B489, 5,6-dibromo-4-nitro-2-(piperidin-4-yl)-1-(propan-2-yl)-1H-1,3-benzodiazole] showed a GI50 (KASUMI-3) of 633 nM, a CC50 (KASUMI-3; read-out: LC50) of 2330 nM and a Kd (FLT3wt) of 160 nM. For the same molecule, the TGI (MOLM-13 xenografts) was ~ 50%, the half-life at 1 µM [1] was 21.1 h and the half-life at 1 µM [2] was 21.8 h. For the same molecule, the GI50 (OCI-AML-3) was 1590 nM, the CC50 (OCI-AML-3; read-out: LC50) was 9210 nM and the “S6 (S235/236) phosphorylation” value (MOLM-16 (FLT3-WT) cells) was “profound inhibition”. The MCL1 abundance [3] was “markedly decreased”, the STAT5 signaling [3] was “completely blocked” and the “apoptosis indicated by PARP cleavage” value [3] was “marked induction of apoptosis”. For the same molecule, the GI50 (RS4;11) was 190 nM, the CC50 (RS4;11; read-out: LC50) was 2160 nM and the GI50 (EOL-1) was 266 nM. The GI50 (MOLM-6) was 449 nM, the CC50 (MOLM-6; read-out: LC50) was 7200 nM and the “time after the last dose that Phospho-S6 remained suppressed” value [4] was “up to 8 hours”. The Cmax ([5]; 50 mg/kg) was 2180 ng/mL, the Tmax ([5]; 50 mg/kg) was 4 h and the bioavailability ([5]; 50 mg/kg, read-out: F (bioavailability)) was 62%. The AUC(0-t) [5] was 26200 ng·h/mL, the half-life [5] was 5.2 h and the “viability of MOLM-14 cells with FLT3-TKD mutants versus FLT3-ITD or parental cells” value [6] was “neither of the FLT3 TKD point mutations decreased the cellular sensitivity”. For the same molecule, the half-life at 1 µM [7] was 4.3 h, the GI50 (OCI-AML-2) was 960 nM and the CC50 (OCI-AML-2; read-out: LC50) was 2320 nM. For the same molecule, the GI50 (GDM-1) was 680 nM, the GI50 (SKNO-1) was 18 nM and the Kd (PIM2) was 2 nM. For the same molecule, the GI50 (MV-4-11) was 20 nM and the CC50 (MV-4-11; read-out: LC50) was over 10000 nM.
